From patent publication US8906936B2, “Pharmaceutical combination comprising co-administration of taxane and N-(1-cyclohexyl-2-{2-[4-(4-fluoro-benzoyl)-thiazol-2-yl]-pyrrolidin-1-yl}-2-oxo-ethyl)-2-methylamino-propionamide or pharmaceutically acceptable salt(s) thereof” (Novartis AG, priority 2005, dated 2014) come the findings set out here.

One data set concerns MDA231. Briefly: 72 hr MTS assay, LBW242 with or without Taxol, MDA231. In kind it is cell-based, human. An excerpt: (§1) 1. […] MTS Data is generated as described below:
(§2) Selection of IAP Inhibitor Dose Levels
On the technique in general: Tetrazolium dyes change colour on reduction, which living cells bring about.

The test system of the next data set is SKOV3. In words: 72 hr MTS assay, LBW242 with or without Taxol, SKOV3. In kind it is cell-based, human.
From the text: as §1, §2

Another data set has as its target BIR3 domain of CIAP1 (Homo sapiens, UniProt Q13490). In words: affinity for BIR3 domain of CIAP1. The class given is binding.
The subject of data set [1] is tumor cell lines representing lung, ovarian, melanoma, pancreatic cancers. Briefly: 72 hr MTS assay, panels of tumor cell lines (lung, ovarian, melanoma, pancreatic).
Method: To determine whether the spectrum of tumor cell lines which responded to these agents would be wider in combination with the cytotoxic drug Taxol, we subject panels of tumor cell lines representing a number of human cancers to in vitro combination analyses.
MTS Reagent (#G1111; Promega) in PBS, pH 6-6.5. […] Tumor Cell Lines are purchased from ATCC.
Cell proliferation/cell death is analyzed in 72 hr. […] Tumor cell lines are plated at subconfluent densities in 96 well plate format and allowed to adhere for 12-16 hr. Cpds are then added according to the following schemes: i.
Chemotherapeutic agents or cytotoxic cpds (Ctx) are added alone, in an 8-point/10-fold titration scheme from high to low dose, in triplicate. ii. […] Once all dosing is completed, cells are cultured for a further 72 hr. and then assayed using the MTS format:
Plate cells in RPMI/10% FBS Complete medium. […]
Add MTS/PMS reagents to T.0 Plate(s). […] Read OD 490 nm using SoftMax Pro software on a Molecular Devices (Sunnyvale, Calif.) Spectrophotometer. Calculate T.0 values for each cell line to be assayed by generating the mean value of the OD 490 nm readings from each cell line's T.0 wells (6/cell line) and subtracting the mean OD 490 nm values from Blank wells. […]
Add 20 ul mixture to ea. well & incubate plate(s) 2 hr. @ 37° C./5% CO2. Read OD 490 nm using SoftMax Pro software on a Molecular Devices Spectrophotometer. […]
For a further data set, the target named is BIR3 domain of XIAP (Homo sapiens, UniProt P98170). In words: affinity for BIR3 domain of XIAP. The class given is binding.
Chain of BIR3 domain of XIAP (P98170 241-356 limits assumed): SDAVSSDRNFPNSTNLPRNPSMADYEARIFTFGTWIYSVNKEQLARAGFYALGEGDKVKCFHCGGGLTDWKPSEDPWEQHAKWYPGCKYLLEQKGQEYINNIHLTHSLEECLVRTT
For data set [2], the system named is ovarian carcinoma line SKOV3. In words: anti-proliferative activity of combination with Docetaxel in SKOV3 in vitro. The class given is cell-based. The conditions noted are these: across a dose range. An excerpt: FIG. 1 indicates anti-proliferative activity of compound of formula (III) alone (bottom row), Docetaxel alone (most leftward column) and combinations of the two agents across a dose range. FIG. 2 is the corresponding isobologram at 70% growth inhibition.

Data set [3] has as its system orthotopic breast cancer model MDA-MB-231. Briefly: orthotopic breast cancer model MDA-MB-231, anti-tumor activity. The class given is in vivo. Conditions: in combination with Paclitaxel; established tumors treated for two weeks; compared to either single agent.
The next data set has as its system melanoma cell line A375. Briefly: three day proliferation assay in A375. The class given is cell-based. As for the experimental part: Bottom two curves show Taxol dose response in presence of either 6 μM or 12 μM compound of formula (III).
Where [4] appears, read: criterion: minimum five fold potency shift of Taxol IC50 relative to Taxol alone.

Chain of BIR3 domain of CIAP1 (Q13490 253-363 limits assumed): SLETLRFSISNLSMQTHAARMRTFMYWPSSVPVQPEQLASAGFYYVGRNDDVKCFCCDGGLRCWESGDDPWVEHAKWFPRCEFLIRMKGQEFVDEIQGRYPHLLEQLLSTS

Take `CN[C@@H](C)C(=O)N[C@H](C(=O)N1CC[C@H]2CCN(CCc3ccccc3)C[C@H]21)C1CCCCC1` [LBW242]: the “combination activity with Taxol” value with MDA231 (setting [4]) and in the data set with SKOV3 (setting [4]) was “exhibit combination activity” in each case. Besides, the response to monotherapy entry with MDA231 (single agent) and in the data set on SKOV3 (single agent) was “responsive” in each case. For the same compound, on BIR3 domain of CIAP1, the affinity entry is reported as “nM affinity”. The “range of tumor cell lines sensitive in combination with a cytotoxic agent versus as a single agent” value in data set [1] (in combination with Taxol) is listed as “slightly larger”. Moreover, the “single agent activity across tumor cell lines” value in data set [1] (single agent, in vitro) is “single agent activity on a limited number of tumor cell lines”.
For `CN[C@@H](C)C(=O)N[C@H](C(=O)N1CCC[C@H]1c1nc(C(=O)c2ccc(F)cc2)cs1)C1CCCCC1` [LCL161], the affinity result at BIR3 domain of XIAP is “nM affinity”.
As to `CN[C@@H](C)C(=O)N[C@H](C(=O)N1CC[C@H]2CCN(CCc3ccccc3)C[C@H]21)C1CCCCC1` [compound of formula (III)], in data set [2], the “interaction of the combination with Docetaxel (anti-proliferative activity)” value was “significant synergy”. For the same compound, the “anti-tumor activity of the combination with Paclitaxel” value in data set [3] is “superior anti-tumor activity compared to either agent administered as a single agent”. Further, the “anti-proliferative activity of Taxol in combination” value in the data set with melanoma cell line A375 (Taxol dose response in presence of 6 μM or 12 μM compound of formula (III), A375, three day) was “dramatically enhanced”. The stand alone activity result in the data set on melanoma cell line A375 (single agent, A375 (data not shown)) is listed as “no stand alone activity”.
